Activity calls are given as the source filed them.
Assays:
BJ [1] = assay: cytotoxicity toward BJ-TERT fibroblasts, dose response, cell-based, RAS-independent, luminescence (AID 1933); assay type: functional; conditions: Homo sapiens
BJ [2] = assay: cells; assay type: functional, cell-based; conditions: Homo sapiens
BJ [3] = assay: cytotoxicity toward BJ-TERT-LT-ST fibroblasts, dose response, cell-based, RAS-independent, luminescence (AID 1935); assay type: functional; conditions: Homo sapiens;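 also: BJ fibroblasts immortalized with TERT plus LT and ST oncogenes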
[4] = cytotoxicity toward DRD oncogenic fibroblasts, dose response, cell-based, non-viral oncogenic, luminescence (AID 1934); assay type: functional; conditions: Homo sapiens
[5] = cytotoxicity in HEK-293T cells, dose response, cytotoxicity control for TCR NF-kB inhibitor project, luminescence, T-cell screen hits (AID 489026); assay type: functional, cell-based;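 also: cells exposed to compound about 14 hours before the viability readout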
cells [6] = assay type: functional, cell-based
[7] = molecular target: T1, Nuclear receptor subfamily 0 group B member 1 (Homo sapiens, UniProt P51843); assay type: functional, cell-based;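 also: HEK293T cells transfected with SF-1 and DAX-1 plus StAR promoter luciferase reporter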
T1 sequence (P51843 whole entry): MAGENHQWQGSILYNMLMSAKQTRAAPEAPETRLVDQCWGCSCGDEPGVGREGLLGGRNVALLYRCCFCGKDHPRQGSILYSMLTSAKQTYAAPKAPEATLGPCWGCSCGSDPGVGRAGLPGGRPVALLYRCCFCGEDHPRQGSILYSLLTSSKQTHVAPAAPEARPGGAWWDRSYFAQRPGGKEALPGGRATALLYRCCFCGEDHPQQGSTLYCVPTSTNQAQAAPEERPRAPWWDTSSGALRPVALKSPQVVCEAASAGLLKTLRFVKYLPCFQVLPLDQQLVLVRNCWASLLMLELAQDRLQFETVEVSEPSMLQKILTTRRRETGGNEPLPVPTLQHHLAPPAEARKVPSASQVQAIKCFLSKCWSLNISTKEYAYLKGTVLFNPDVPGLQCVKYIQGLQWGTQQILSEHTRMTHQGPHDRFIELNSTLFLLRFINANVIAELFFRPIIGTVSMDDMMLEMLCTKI

[8] = Luminescence Cell-Based Dose Confirmation HTS to Identify Activators of 5'UTR Stem-Loop Driven Alpha-Synuclein mRNA Translation in H4 Neuroglioblastoma Cells. [Related pubchem assays: 1829 (Project Summary), 1814 (Primary HTS)]; assay type: functional
[9] = Luminescence Cell-Based Dose Response HTS to Identify Activators of Luciferase Translation or Activity in H4 […] Cells. [Related pubchem assays: 1829 (Project Summary), 1814 (Primary HTS)]; assay type: functional
H4 = assay: Luminescence Cell-Based Dose Response HTS to Identify Activators of 5'UTR Stem-Loop Driven Prion Protein mRNA Translation in H4 Neuroglioblastoma Cells. [Related pubchem assays: 1829 (Project Summary), 1814 (Primary HTS)]; assay type: functional; conditions: Homo sapiens
[10] = inhibitors of intracellular T. cruzi replication, confirmation, NIH3T3 host cells, beta-gal luminescence (AID 2044); assay type: functional, cell-based;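 also: intracellular parasites grown in NIH/3T3 mouse fibroblasts as host cells; luminescent beta-galactosidase reporter signal from transgenic T. cruzi replicating inside host cells; inhibitors lower the luminescence signal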
[11] = cytotoxicity toward NIH3T3 fibroblasts, dose response, counter-screen, cell-based, ATP luminescence, mouse fibroblasts (AID 2010); assay type: functional;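 also: cells exposed to compound for about 90 hours before reading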
[12] = THP-1 cell cytotoxicity, dose response, cytotoxicity control for non-replicating M. tuberculosis project (AID 489025); assay type: functional
[13] = molecular target: T2, High affinity choline transporter 1 (Homo sapiens, UniProt Q9GZV3); assay: CHT inhibitors, dose response, cell-based, 5-point CRC, membrane potential dye (AID 504840); assay type: functional
T2 sequence (Q9GZV3 whole entry): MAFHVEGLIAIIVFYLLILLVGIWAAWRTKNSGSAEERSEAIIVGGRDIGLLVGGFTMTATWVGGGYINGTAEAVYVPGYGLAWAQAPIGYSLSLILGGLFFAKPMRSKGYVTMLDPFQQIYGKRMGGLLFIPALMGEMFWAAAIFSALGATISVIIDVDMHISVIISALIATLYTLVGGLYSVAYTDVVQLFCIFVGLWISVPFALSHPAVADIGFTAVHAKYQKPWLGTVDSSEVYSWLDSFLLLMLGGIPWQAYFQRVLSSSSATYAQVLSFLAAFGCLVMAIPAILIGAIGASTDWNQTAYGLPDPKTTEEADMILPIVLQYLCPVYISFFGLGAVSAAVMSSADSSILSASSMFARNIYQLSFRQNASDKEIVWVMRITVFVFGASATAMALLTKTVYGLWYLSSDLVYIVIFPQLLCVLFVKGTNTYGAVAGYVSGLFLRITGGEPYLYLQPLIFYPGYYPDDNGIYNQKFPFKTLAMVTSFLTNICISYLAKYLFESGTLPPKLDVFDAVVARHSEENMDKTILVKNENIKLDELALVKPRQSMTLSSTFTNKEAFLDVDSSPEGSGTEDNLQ

[14] = molecular target: Glyceraldehyde-3-phosphate dehydrogenase (Homo sapiens, UniProt P04406)
Sequence of Glyceraldehyde-3-phosphate dehydrogenase (P04406 whole entry): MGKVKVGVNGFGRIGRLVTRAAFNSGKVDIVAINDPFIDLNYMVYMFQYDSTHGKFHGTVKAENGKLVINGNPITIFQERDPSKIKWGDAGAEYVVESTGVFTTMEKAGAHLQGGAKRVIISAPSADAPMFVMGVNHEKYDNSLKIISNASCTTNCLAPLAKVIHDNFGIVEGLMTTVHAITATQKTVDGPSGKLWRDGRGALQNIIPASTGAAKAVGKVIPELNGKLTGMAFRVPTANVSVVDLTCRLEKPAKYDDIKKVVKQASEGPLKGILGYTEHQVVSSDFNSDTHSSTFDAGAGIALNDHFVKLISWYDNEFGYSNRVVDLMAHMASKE

P388/ADR = assay: cells; assay type: functional; conditions: Mus musculus
SN12K1 = assay: cells; assay type: functional; conditions: Homo sapiens
P388 = assay: cells; assay type: functional; conditions: Mus musculus
cells [15] = assay type: functional
[16] = inhibitors of firefly luciferase expression or activity, dose response, H4 neuroglioma cells, luminescence (AID 1990); assay type: functional, cell-based
[17] = Luminescence Cell-Based Dose Response HTS to Identify Inhibitors of 5'UTR Stem-Loop Driven Prion Protein mRNA Translation in H4 Neuroglioblastoma Cells. [Related pubchem assays: 1827 (Project Summary), 1813 (Primary HTS)]; assay type: functional
[18] = inhibitors of SNCA 5'UTR-driven reporter translation, confirmation, H4 neuroglioma cells, luminescence (AID 1988); assay type: functional, cell-based
[19] = molecular target: T3, Calpain-2 catalytic subunit (Sus scrofa, UniProt P43367); assay: pig calpain II inhibitor potency, dose response, biochemical, fluorogenic peptide substrate (AID 1420); assay type: functional
T3 sequence (P43367 whole entry): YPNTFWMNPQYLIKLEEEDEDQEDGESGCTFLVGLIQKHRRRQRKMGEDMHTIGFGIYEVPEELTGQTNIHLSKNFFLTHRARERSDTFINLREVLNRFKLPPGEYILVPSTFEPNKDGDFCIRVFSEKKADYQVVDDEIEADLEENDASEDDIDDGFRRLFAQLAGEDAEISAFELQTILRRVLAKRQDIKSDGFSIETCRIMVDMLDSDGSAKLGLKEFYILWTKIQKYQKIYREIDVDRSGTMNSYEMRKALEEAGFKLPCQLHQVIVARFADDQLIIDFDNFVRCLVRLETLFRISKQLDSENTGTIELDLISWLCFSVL

[20] = molecular target: Glucose-6-phosphate 1-dehydrogenase (Homo sapiens, UniProt P11413); assay: human G6PD enzyme inhibitors, dose response, selectivity assay for P. falciparum G6PD inhibitor project, biochemical, fluorescence (AID 504792); assay type: functional
Sequence of Glucose-6-phosphate 1-dehydrogenase (P11413 whole entry): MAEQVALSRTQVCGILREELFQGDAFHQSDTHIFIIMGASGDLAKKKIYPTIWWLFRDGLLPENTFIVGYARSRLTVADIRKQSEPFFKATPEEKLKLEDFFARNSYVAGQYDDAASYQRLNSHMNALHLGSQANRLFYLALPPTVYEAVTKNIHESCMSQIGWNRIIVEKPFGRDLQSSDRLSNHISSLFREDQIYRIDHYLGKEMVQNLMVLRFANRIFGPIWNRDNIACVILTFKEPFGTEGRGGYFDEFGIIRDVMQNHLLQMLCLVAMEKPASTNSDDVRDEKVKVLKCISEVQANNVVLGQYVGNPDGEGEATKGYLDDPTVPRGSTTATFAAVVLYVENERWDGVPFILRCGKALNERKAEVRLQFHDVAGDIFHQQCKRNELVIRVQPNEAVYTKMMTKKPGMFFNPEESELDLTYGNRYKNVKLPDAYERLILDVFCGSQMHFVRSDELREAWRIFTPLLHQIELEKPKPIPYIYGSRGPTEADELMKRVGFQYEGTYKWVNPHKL

With Cc1ccc2c(c1)C=CC(C#N)N2C(=O)c1ccccc1 (configuration not stated) the EC50 (BJ [1]) was 3.69 µM (active), the EC50 (BJ [2]) was > 150 µM (not active) and the EC50 (BJ [3]) was 25.5 µM (inconclusive). For the same molecule, the EC50 [4] was 1.54 µM (active) and the IC50 [5] was > 80 µM (inactive).

For COc1cc(OC)c2c(-c3cccc(-c4ccc(NC(C)=O)cc4)c3)cc(=O)oc2c1, the IC50 (cells [6]) was > 67.5 µM (inactive) and the IC50 [7] was > 67.5 µM (inactive).

With CN1CCN(C(=O)c2ccc3c(Cl)c4c(nc3c2)CCCC4)CC1 the IC50 (cells [6]) was > 67.6 µM (inactive) and the IC50 [7] was > 67.6 µM (inactive).

For CCCCCOc1ccc(CSC2=NCCN2)cc1[N+](=O)[O-], the EC50 [8] was 14.1 µM (active), the EC50 [9] was > 120 µM (not active) and the EC50 (H4) was 22.2 µM (active). The EC50 [10] was 0.534 µM (active), the EC50 [11] was > 60 µM (not active) and the CC50 [12] was > 40 µM (active).

With Cc1cc(C)nc(SC2CC(=O)N(c3ccc(C)c(C)c3)C2=O)n1 (configuration not stated) the CC50 [12] was > 40 µM (active).

With CN1CCCC(CC2Oc3ccccc3Sc3ccccc32)C1 (configuration not stated) the IC50 [13] was 15.8 µM (active).

For CN(C)C1=C(Cl)C(=O)N(c2ccc(Cl)nc2)C1=O, the IC50 [14] was > 50 µM (inconclusive).

With CCCCOc1ccc(OCCCCCCCCCC[N+](C)(C)C)cc1 the GI50 (P388/ADR) was 7.05 µM (inactive), the GI50 (SN12K1) was 1.61 µM (inactive) and the GI50 (P388) was 0.94 µM (active).

With Cc1ccc(-c2nnc(C)c(N3CCCC3)n2)cc1 the IC50 (cells [15]) was 13.2 µM (active).

In the case of N=C(N)Nc1ncccc1[N+](=O)[O-], the GI50 (P388/ADR) is reported as 32.9 µM (inactive), the GI50 (SN12K1) is reported as > 100 µM (inactive) and the GI50 (P388) is reported as 40.2 µM (inactive).

For Cc1ccc(CSc2nc3ccccc3cc2C=O)cc1, the EC50 [16] was > 120 µM (not active), the EC50 (BJ [1]) was 0.689 µM (active) and the EC50 [17] was 11.9 µM (active). The EC50 [18] was 9.33 µM (active), the EC50 (BJ [2]) was 1.87 µM (active) and the EC50 (BJ [3]) was 0.668 µM (active). The EC50 [4] was 1.59 µM (active).

For COc1ccc(NC(=O)c2cnc(SC)nc2)cc1, the EC50 [8] was > 120 µM (not active), the EC50 [9] was 14.8 µM (active) and the EC50 (H4) was 16 µM (active). For the same molecule, the CC50 [12] was 18.1 µM (active) and the IC50 (cells [15]) was 18.4 µM (active).

For CCOc1ccc(NC(=NCc2ccc3c(c2)OCO3)SC2CC(=O)N(c3ccc(OCC)cc3)C2=O)cc1 (configuration not stated), the IC50 [19] was > 50 µM (not active).

With Oc1ccc(Br)cc1/C=N/c1ccc(Cl)cc1 the IC50 [19] was 43.8 µM (not active).

With CC(NC(=O)c1cc2cc(Br)ccc2oc1=N)c1ccccc1 (configuration not stated) the CC50 [12] was 24.6 µM (active) and the IC50 (cells [15]) was 33.6 µM (active).

In the case of Cc1ccc(/C=C/C(=O)NCCc2cccc(Cl)c2)o1, the IC50 [20] is reported as > 80 µM (inactive).

— ChEMBL document CHEMBL1201862, “PubChem BioAssay data set” (2004)
